Experimental data taken from patent US8609616B2, “Strontium-containing compounds for use in the prevention or treatment of necrotic bone conditions” (Osteologix A/S, priority 2004, dated 2013).

System: animal model of osteonecrosis
Test: Effect of strontium malonate in an animal model of osteonecrosis (necrotic bone graft in titanium chamber, histology)
Type: in vivo, rat
Conditions: male Sprague-Dawley rats, necrotic bone graft in tibia, 1.6 g/l in drinking water ad libitum (approx. 120 mg strontium malonate/day), 6 weeks; mean (±SD); p=0.038 vs calcium malonate control 2.24 (±1.00)
Source text: The rationale for the study was to assess the ability of strontium to act as a therapeutic and bone growth promoting (i.e. pro-anabolic) agent in an animal model of osteonecrosis. […] The necrotic graft was degraded, while ingrowth of new bone occurred. At termination of the experiment, the structural grafts was removed and analyzed by histology to quantify both the degradation of the necrotic graft as well as ingrowth of new bone. Concomitant treatment with anabolic and/or anti-resorptive agents may be given after the insertion of the necrotic graft, and the effect monitored after termination of the experiment. This rat model has previously been described (Astrand J, Aspenberg P. BMC Musculoskelet Disord. 2002; 3(1):19).
The salts were prepared in a solution of 1.6 g/l, which is close to saturation (22-25° C.). Thus extensive stirring was required to completely dissolve the substances. A new batch of drinking water was prepared fresh every week for the duration of the experiment. When not in use the solution was stored at room temperature in a closed container. […]
After careful removal from the titanium chamber, the grafts were decalcified in 10% formic acid, 2% formaldehyde for 14 days. […] Each section was subsequently stained with hematoxylin and eosin, and visually scored for appearance of degradation of the necrotic graft as well as ingrowth of new bone.

How did the “average ingrowth of new bone (ingrowth distance)” value turn out when `O=C([O-])CC(=O)[O-].[Sr+2]` [strontium malonate] was run?
Its value is 3.43 (±1.35 (SD)) mm.
